# Reference: patent US20040235163A1, “Myocardial cell apoptosis inhibitors” (priority 2001, published 2004)
# Experiments:
# [1] = test system: neonatal rat ventricular myocytes (NRVMs); experiment: H2O2-induced apoptosis in cultured cardiac myocytes, flow cytometry (Sub-G1 peak); type: cell-based
# [2] = test system: neonatal rat ventricular myocytes (NRVMs); experiment: Calcium ionophore A23187-induced apoptosis in cultured cardiac myocytes, flow cytometry; type: cell-based
# Description: Cultured neonatal rat ventricular myocytes (NRVMs) were provided as cardiac myocytes used in the experiments. More specifically, hearts were extracted from 0- to 1-day-old neonatal rats (Wister, pregnant rats were purchased from Chubu Shizai). The ventricles of each heart were then treated with collagenase Type 2 (Worthington) and pancreatin (Sigma) to enzymatically isolate cardiac myocytes (collagenase 0.5 mg/ml, pancreatin 0.6 mg/ml, 4 treatments), followed by primary culture. After the enzymatically collected cells were seeded in plates and allowed to stand for 30 minutes, non-adhesive cells were collected to remove fibroblasts. The resulting cardiac myocytes were seeded at a density of 1×10^5 cells/cm^2 on 6-well plates or 75 cm^2 flasks pre-coated with 1% gelatin and then cultured at 37° C. under 5% CO2 for 48 hours in a medium consisting of DMEM/Medium 199 (4:1), 10% fetal bovine serum (FBS, Sigma), 0.1 mM bromodeoxyuridine (BrdU, Roche), penicillin (50 units/ml, GIBCO) and streptomycin (50 μg/ml, GIBCO). Culturing was carried out in a CO2 incubator under conditions of 37° C. The medium was then replaced with a serum-free medium which had been prepared from the same ingredients other than FBS and supplemented with insulin-transferrin-selenium (ITS, GIBCO). These cells were provided for experiments 24 hours after replacement with the serum-free medium. After immunocytostaining with a cardiac myocytespecific antibody (α-actinin antibody), the percentage of cardiac myocytes was measured by microscopy to confirm that 90% or more of the cells were cardiac myocytes at that stage.
# Flow cytometry analysis was performed using a Coulter EPICSXL and a software package specific for this purpose. After collection of floating cardiac myocytes from the cell culture (1×10^6 cells/well), adhered cardiac myocytes were trypsinated and collected in the same tube. […] Propidium iodide (250 μL, 25 μg/ml, Sigma) was added to and suspended well in the cell suspension, which was then allowed to stand at room temperature for 20 minutes or more and analyzed by flow cytometry. Cells showing a Sub-G1 peak in nuclear staining with propidium iodide were counted as apoptotic cells to calculate the percentage of cells showing a Sub-G1 peak relative to the total cell count measured (1×10^4 cells). The calculated percentage was defined as the percentage of apoptotic cells.
# (§1) Calcium ionophore A23187 (Sigma) was added at a final concentration of 5×10^−6 M to the cell culture of cardiac myocytes prepared as described in Example 1. The cells were cultured as described in Example 1 and analyzed to determine the percentage of apoptotic cells. […]
# cardiac myocytes = experiment: Apoptosis in cardiac myocytes measured as in Examples 1 and 2, modulators of the nicorandil effect; type: cell-based, rat
# Description: Flow cytometry analysis was performed using a Coulter EPICSXL and a software package specific for this purpose. After collection of floating cardiac myocytes from the cell culture (1×10^6 cells/well), adhered cardiac myocytes were trypsinated and collected in the same tube. After centrifugation, the pellet was washed with PBS, supplemented with 70% EtOH, and then allowed to stand at room temperature for 20 minutes or more to fix the cells. After fixation, the cells were washed with PBS, re-suspended in 1 ml PBS and then reacted with 50 μL RNase (1 mg/ml, Sigma) at 37° C. for 40 minutes. After the cells were allowed to stand at room temperature (if necessary), they were washed with PBS and suspended in about 250 μL PBS to prepare a cell suspension. Propidium iodide (250 μL, 25 μg/ml, Sigma) was added to and suspended well in the cell suspension, which was then allowed to stand at room temperature for 20 minutes or more and analyzed by flow cytometry. Cells showing a Sub-G1 peak in nuclear staining with propidium iodide were counted as apoptotic cells to calculate the percentage of cells showing a Sub-G1 peak relative to the total cell count measured (1×10^4 cells). The calculated percentage was defined as the percentage of apoptotic cells.
# H2O2 (Sigma) was added at a final concentration of 1×10^−4 M to the cell culture of cardiac myocytes prepared as described above (final density: 1×10^6 cells/2 ml/well), followed by culturing for 16 hours in a CO2 incubator. The cells were collected and analyzed by flow cytometory to determine the percentage of apoptotic cells. Nicorandil was also added at a final concentration of 1×10^−4 M immediately before H2O2 addition. […]
# as §1
# Apoptosis in cardiac myocytes was measured as described in Examples 1 and 2.
# [3] = test system: Bad protein (phospho-Bad Ser-136); experiment: Western blot analysis of Bad phosphorylation in apoptotic cardiac myocytes; type: cell-based, rat; details: pre-treatment with nicorandil, apoptotic cells induced by H2O2 or A23187
# Description: Both floating and adhered cardiac myocytes were collected and lysed at 4° C. for 1 hour in a lysis buffer consisting of 20 mM Tris-HCl (pH 7.5), 2 mM EDTA, 3 mM EGTA, 2 mM DTT, 250 mM sucrose, 1% Triton X-100, 10 μg/ml aprotinin, 10 μM leupeptin and 0.1 mM PMSF. The resulting cell lysate was measured for its protein level by the Bradford method, solubilized in 2× sample buffer and then boiled at 95° C. for 3 minutes. After each lane was loaded with 50 μg sample and electrophoresed on a 12.5% SDS-polyacrylamide gel, the gel was transferred to a PVDF membrane. The blots were blocked overnight in 3% BSA/0.1% Tween-20 in PBS and then detected with the following primary antibodies: rabbit polyclonal Bcl-2 antibody (Pharmingen), rabbit polyclonal Bax antibody (Pharmingen), mouse monoclonal p53 antibody (Calbiochem), mouse monoclonal poly(ADP-ribose) polymerase (PARP) antibody (Clontech) and rabbit polyclonal CPP32 antibody (Santa Cruz). […]
# Both floating and adhered cardiac myocytes were collected from 75 cm^2 flasks and lysed in 0.5 mL lysis buffer consisting of 10 mM Tris-HCl (pH 7.4), 1 mM EDTA, 1 mM EGTA (pH 8.0), 150 mM NaCl, 1% Triton X-100, 0.2 mM sodium ortho-vanadate, 0.2 mM PMSF and 0.5% NP-40. […] The total Bad content was determined by probing with a rabbit polyclonal Bad antibody (New England Biolabs). […]
# [4] = test system: Neonatal rat cardiac myocytes; experiment: JC-1 mitochondrial membrane potential, confocal microscopy, H2O2 stimulation; type: cell-based; details: pre-treatment with nicorandil 100 μmol/L; H2O2 200 μmol/L, 20 min
# Text: A fluorescent probe JC-1, a detection reagent for mitochondrial membrane potential, was used to confirm that nicorandil inhibited apoptosis in cardiac myocytes stimulated by H2O2. In most cases of cellular apoptosis, cytochrome C is translocated from mitochondrial membrane to cytosol, during which loss of mitochondrial membrane potential is known. Since JC-1 is a cationic fluorescent substance, it easily enters cells and emits red fluorescence (λem=590 nm) in normal cell mitochondria through formation of polymers called J-aggregates. […] Neonatal rat cardiac myocytes were seeded at a density of 1×10^6 cells/well in 35 mm dishes with glass bottoms (IWAKI) and cultured at 37° C. for 10 minutes in serum-free DMEM/F12 medium containing 10 μg/mL JC-1 (Wako Pure Chemical Industries, Ltd.). The cells on the dishes were observed using a confocal laser scanning microscope and a 20× objective lens. Fluorescence was excited by the 488 nm line of an argon laser and the 543 nm line of a helium-neon laser.
# [5] = test system: animal models of ischemic reperfusion; details: cited from earlier work
compound,measurement,setting,value
"OO [H2O2, hydrogen peroxide]",percentage of apoptotic cells,"[1]; 1×10^−4 M H2O2, 16 hours, 10% or less in the absence of H2O2",more than 70%
ZVAD,block of the pro-apoptosis effect of A23187,"[2]; ZVAD 1×10^−5 M, A23187 5×10^−6 M",around 50%
COc1ccc(Cl)cc1C(=O)NCCc1ccc(S(=O)(=O)NC(=O)NC2CCCCC2)cc1 [glibenclamide],effect on the anti-apoptotic effect of nicorandil (H2O2-induced apoptosis),[1]; glibenclamide 1×10^−5 M + nicorandil + H2O2 1×10^−4 M,completely blocked
COc1ccc2c(c[n+](C)c3c4cc5c(cc4ccc23)OCO5)c1OC [chelerythrine],effect on the anti-apoptotic effect of nicorandil,cardiac myocytes; chelerythrine final concentration 10^−6 M,completely disappeared
"COC(=O)[C@@H](N)CCCNC(=N)N[N+](=O)[O-] [L-NAME, N^G-nitro L-arginine methyl ester]",effect on the anti-apoptotic effect of nicorandil,cardiac myocytes; L-NAME final concentration 10^−6 M,partially blocked
"O=C(NCCO[N+](=O)[O-])c1cccnc1 [nicorandil, N-(2-hydroxyethyl)nicotinamide nitrate ester]",phosphorylation level of Bad,[3],increase the phosphorylation level of Bad
same,inhibition at 100 µM,"[2]; Rattus norvegicus, Ventricular myocyte, nicorandil 1×10^−4 M, A23187 5×10^−6 M, read-out: block / inhibition of apoptosis induced by calcium ionophore A23187",~50%
same,inhibition of H2O2-induced apoptosis,"[1]; 1×10^−4 M nicorandil added immediately before 1×10^−4 M H2O2, 16 hours",significantly inhibited to the control level
same,inhibition at 100 µM,"[1]; Rattus norvegicus, Ventricular myocyte, pre-treatment with nicorandil 10^−4 M, read-out: inhibition of NRVM apoptosis induced by H2O2",60%
same,JC-1 green fluorescence (loss of mitochondrial membrane potential) upon H2O2 stimulation,[4],inhibit such green fluorescence
same,infarct size,[5],decrease infarct size
CNc1ccc2oc(C[C@H]3O[C@@]4(CC[C@H]3C)O[C@H]([C@H](C)C(=O)c3ccc[nH]3)[C@H](C)C[C@H]4C)nc2c1C(=O)O [A23187],induction of apoptosis,[2]; A23187 5×10^−6 M,induced apoptosis significantly
nitroprusside,effect on the anti-apoptotic effect of nicorandil,cardiac myocytes; nitroprusside final concentration 10^−4 M,enhanced
CCCCCC(O)CCCC(=O)O (stereo not drawn) [5-hydroxydecanoate],effect on the anti-apoptotic effect of nicorandil (A23187-induced apoptosis),[2]; 5-hydroxydecanoate 5×10^−4 M + nicorandil 1×10^−4 M + A23187 5×10^−6 M,completely blocked
same,effect on the anti-apoptotic effect of nicorandil (H2O2-induced apoptosis),[1]; 5-hydroxydecanoate 5×10^−4 M + nicorandil 1×10^−4 M + H2O2 1×10^−4 M,partially blocked
